Test results published in ChEMBL document CHEMBL1138974 (Bioorg Med Chem Lett, 2006).

Legend:
[1] = biological target: T1, Sodium- and chloride-dependent glycine transporter 1 (Homo sapiens, UniProt P48067); experiment: Inhibition of [3H]glycine uptake at human GlyT1 by radiometric assay
T1 sequence (P48067 whole entry): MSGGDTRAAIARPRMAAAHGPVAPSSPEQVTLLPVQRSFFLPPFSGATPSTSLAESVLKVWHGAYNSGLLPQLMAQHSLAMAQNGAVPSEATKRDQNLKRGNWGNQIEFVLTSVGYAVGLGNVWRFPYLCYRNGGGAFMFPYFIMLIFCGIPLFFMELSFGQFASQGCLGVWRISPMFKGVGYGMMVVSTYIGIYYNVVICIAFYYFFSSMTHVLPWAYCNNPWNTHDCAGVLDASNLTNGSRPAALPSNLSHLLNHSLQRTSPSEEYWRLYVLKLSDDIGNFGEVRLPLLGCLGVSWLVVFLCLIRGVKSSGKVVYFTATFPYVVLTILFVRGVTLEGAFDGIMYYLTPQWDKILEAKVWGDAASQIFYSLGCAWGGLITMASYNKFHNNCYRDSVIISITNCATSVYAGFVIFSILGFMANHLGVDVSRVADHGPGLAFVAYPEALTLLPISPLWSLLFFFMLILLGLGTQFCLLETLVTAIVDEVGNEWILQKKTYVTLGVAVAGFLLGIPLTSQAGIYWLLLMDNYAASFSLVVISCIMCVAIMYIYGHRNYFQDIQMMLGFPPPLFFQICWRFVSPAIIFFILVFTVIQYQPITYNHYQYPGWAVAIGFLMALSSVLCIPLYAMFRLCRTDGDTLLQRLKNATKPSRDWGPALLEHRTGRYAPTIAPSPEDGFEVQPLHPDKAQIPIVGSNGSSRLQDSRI

[2] = biological target: T2, Sodium- and chloride-dependent glycine transporter 2 (Homo sapiens, UniProt Q9Y345); experiment: Inhibition of [3H]glycine uptake at human GlyT2 by radiometric assay
T2 sequence (Q9Y345 whole entry): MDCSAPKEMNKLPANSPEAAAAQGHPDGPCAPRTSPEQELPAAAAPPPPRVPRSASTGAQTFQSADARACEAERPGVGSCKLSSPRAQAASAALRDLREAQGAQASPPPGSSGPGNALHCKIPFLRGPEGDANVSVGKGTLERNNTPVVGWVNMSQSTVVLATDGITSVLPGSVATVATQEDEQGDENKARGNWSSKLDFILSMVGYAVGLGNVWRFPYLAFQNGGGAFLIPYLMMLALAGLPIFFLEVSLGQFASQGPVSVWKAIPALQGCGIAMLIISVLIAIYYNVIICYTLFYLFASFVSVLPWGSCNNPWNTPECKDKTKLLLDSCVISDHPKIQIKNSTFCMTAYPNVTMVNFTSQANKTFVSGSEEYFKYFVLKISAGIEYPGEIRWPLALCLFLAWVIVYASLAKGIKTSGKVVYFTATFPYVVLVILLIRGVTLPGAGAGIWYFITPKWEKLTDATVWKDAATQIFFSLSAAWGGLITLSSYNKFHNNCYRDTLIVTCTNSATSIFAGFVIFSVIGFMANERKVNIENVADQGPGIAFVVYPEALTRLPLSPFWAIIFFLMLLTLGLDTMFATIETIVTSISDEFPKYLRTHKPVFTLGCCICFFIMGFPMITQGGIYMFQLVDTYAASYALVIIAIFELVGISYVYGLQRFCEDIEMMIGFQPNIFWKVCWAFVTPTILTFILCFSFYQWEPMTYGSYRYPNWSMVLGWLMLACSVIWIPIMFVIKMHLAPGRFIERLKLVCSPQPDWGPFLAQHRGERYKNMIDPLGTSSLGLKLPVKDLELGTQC

[3] = biological target: Nociceptin receptor (Homo sapiens, UniProt P41146); experiment: Displacement of [3H]NOP from human NOP receptors expressed in HEK293 cells; assay type: cell-based
Sequence of Nociceptin receptor (P41146 whole entry): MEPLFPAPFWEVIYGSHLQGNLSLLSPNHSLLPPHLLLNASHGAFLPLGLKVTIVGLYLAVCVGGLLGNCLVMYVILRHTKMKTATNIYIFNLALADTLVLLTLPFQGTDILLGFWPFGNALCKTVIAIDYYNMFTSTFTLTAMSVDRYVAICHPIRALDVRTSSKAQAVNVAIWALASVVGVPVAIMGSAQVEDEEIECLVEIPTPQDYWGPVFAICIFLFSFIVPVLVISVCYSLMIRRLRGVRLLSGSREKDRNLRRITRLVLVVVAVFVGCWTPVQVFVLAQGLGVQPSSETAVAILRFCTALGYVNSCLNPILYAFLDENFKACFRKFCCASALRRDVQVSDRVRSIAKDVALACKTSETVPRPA

[4] = Intrinsic clearance in mouse microsome; assay type: ADME; settings: microsomes
[5] = Intrinsic clearance in human microsome; assay type: ADME; settings: microsomes

SMILES	EC50 [1] [nM]	also measured
O=C1NCN(c2ccccc2)C12CCN(C1CCCCC1(O)c1ccccc1)CC2 (stereo not given)	44	EC50 [2]: 72000 nM
COc1ccc(C2(O)CCCCC2N2CCC3(CC2)C(=O)NCC3c2ccccc2)cc1 (stereo not given)	4480	–
CS(=O)(=O)c1ccc(C2(O)CCCCC2N2CCC3(CC2)C(=O)NCC3c2ccc(F)cc2)cc1 (stereo not given)	18600	–
COc1cccc(C2(O)CCCCC2N2CCC3(CC2)C(=O)NCC3c2ccccc2)c1 (stereo not given)	> 30000	–
COc1ccc(C2(O)CCCCC2N2CCC3(CC2)C(=O)NCC3c2ccc(F)cc2)cc1 (single isomer, unassigned; diastereomer 1)	3300	–
Cc1cccc(C2(O)CCCCC2N2CCC3(CC2)C(=O)NCC3c2ccc(F)cc2)c1 (single isomer, unassigned; diastereomer 1)	2640	–
CC(C)(C)c1ccc(C2(O)CCCCC2N2CCC3(CC2)C(=O)NCC3c2ccc(F)cc2)cc1 (single isomer, unassigned; diastereomer 1)	> 30000	–
O=C1NCC(c2ccc(F)cc2)C12CCN(C1CCCCC1(O)c1cccc(Cl)c1)CC2 (single isomer, unassigned; diastereomer 1)	6250	–
N#Cc1ccc(C2(O)CCCCC2N2CCC3(CC2)C(=O)NCC3c2ccc(F)cc2)cc1 (single isomer, unassigned; diastereomer 2)	11300	–
Cc1ccc(C2(O)CCCCC2N2CCC3(CC2)C(=O)NCC3c2ccc(F)cc2)cc1 (single isomer, unassigned; diastereomer 2)	> 30000	–
O=C1NCC(c2ccccc2)C12CCN(C1CCCCC1(O)c1ccc(F)cc1)CC2 (single isomer, unassigned; diastereomer 2)	825	IC50 ([3]; hek293): > 10000 nM
Cc1cccc(C2(O)CCCCC2N2CCC3(CC2)C(=O)NCC3c2ccc(F)cc2)c1 (single isomer, unassigned; diastereomer 2)	10700	–
O=C1NCC(c2ccccc2)C12CCN(C1CCCCC1(O)c1cccc(F)c1)CC2 (single isomer, unassigned; diastereomer 2)	2600	–
CC(C)(C)c1ccc(C2(O)CCCCC2N2CCC3(CC2)C(=O)NCC3c2ccc(F)cc2)cc1 (single isomer, unassigned; diastereomer 2)	> 30000	–
O=C1NCC(c2ccccc2)C12CCN(C1CCCCC1(O)c1ccc(F)cc1)CC2 (single isomer, unassigned; diastereomer 3)	–	EC50 [2]: > 30000 nM; IC50 [3]: > 10000 nM
Cc1ccccc1C1(O)CCCCC1N1CCC2(CC1)C(=O)NCC2c1ccc(F)cc1 (single isomer, unassigned; diastereomer 3)	17700	–
COc1cccc(C2(O)CCCCC2N2CCC3(CC2)C(=O)NCC3c2ccc(F)cc2)c1 (single isomer, unassigned; diastereomer 4)	5300	–
O=C1NCC(c2ccccc2)C12CCN(C1CCCCC1(O)c1cccc(F)c1)CC2 (single isomer, unassigned; diastereomer 4)	5300	–
O=C1NC[C@@H](c2ccccc2)C12CCN(C1CCCCC1c1ccccc1)CC2 (stereo in doubt; 3)	232	EC50 [2]: 25000 nM; IC50 [3]: > 10000 nM

Further lines, with some results ahead:

EC50 [1] [nM]	SMILES	also measured
1390	O=C1NCC(c2ccc(F)cc2)C12CCN(C1CCCCC1(O)c1ccccc1OC(F)(F)F)CC2 (stereo not given)	–
1310	O=C1NCC(c2ccc(F)cc2)C12CCN(C1CCCCC1(O)c1ccc(C(F)(F)F)cc1)CC2 (stereo not given)	–
1950	N#Cc1ccc(C2(O)CCCCC2N2CCC3(CC2)C(=O)NCC3c2ccc(F)cc2)cc1 (mixture of isomers)	–
420	Cc1ccc(C2(O)CCCCC2N2CCC3(CC2)C(=O)NCC3c2ccc(F)cc2)cc1 (single isomer, unassigned; diastereomer 1)	–
596	O=C1NCC(c2ccc(F)cc2)C12CCN(C1CCCCC1(O)c1ccccc1F)CC2 (single isomer, unassigned; diastereomer 1)	–
596	Cc1ccccc1C1(O)CCCCC1N1CCC2(CC1)C(=O)NCC2c1ccc(F)cc1 (single isomer, unassigned; diastereomer 1)	–
95	O=C1NCC(c2ccc(F)cc2)C12CCN(C1CCCCC1(O)c1cccc(F)c1)CC2 (single isomer, unassigned; diastereomer 1)	–
158	O=C1NCC(c2ccccc2)C12CCN(C1CCCCC1(O)c1cccc(F)c1)CC2 (single isomer, unassigned; diastereomer 1)	–
1180	COc1ccc(C2(O)CCCCC2N2CCC3(CC2)C(=O)NCC3c2ccc(F)cc2)cc1 (single isomer, unassigned; diastereomer 2)	–
110	O=C1NCC(c2ccc(F)cc2)C12CCN(C1CCCCC1(O)c1ccccc1F)CC2 (single isomer, unassigned; diastereomer 2)	–
2600	COc1cccc(C2(O)CCCCC2N2CCC3(CC2)C(=O)NCC3c2ccc(F)cc2)c1 (single isomer, unassigned; diastereomer 2)	–
77	O=C1NCC(c2ccc(F)cc2)C12CCN(C1CCCCC1(O)c1cccc(F)c1)CC2 (single isomer, unassigned; diastereomer 2)	microsomal CLint [4]: 16 µL/min/mg; microsomal CLint [5]: 11 µL/min/mg
2340	O=C1NCC(c2ccc(F)cc2)C12CCN(C1CCCCC1(O)c1cccc(Cl)c1)CC2 (single isomer, unassigned; diastereomer 2)	–
437	Cc1ccc(C2(O)CCCCC2N2CCC3(CC2)C(=O)NCC3c2ccc(F)cc2)cc1 (single isomer, unassigned; diastereomer 3)	–
1130	COc1ccc(C2(O)CCCCC2N2CCC3(CC2)C(=O)NCC3c2ccc(F)cc2)cc1 (single isomer, unassigned; diastereomer 3)	–
127	COc1cccc(C2(O)CCCCC2N2CCC3(CC2)C(=O)NCC3c2ccc(F)cc2)c1 (single isomer, unassigned; diastereomer 3)	–
127	O=C1NCC(c2ccccc2)C12CCN(C1CCCCC1(O)c1cccc(F)c1)CC2 (single isomer, unassigned; diastereomer 3)	–
132	Cc1ccc(C2(O)CCCCC2N2CCC3(CC2)C(=O)NCC3c2ccc(F)cc2)cc1 (single isomer, unassigned; diastereomer 4)	–
69	O=C1NCC(c2ccc(F)cc2)C12CCN(C1CCCCC1(O)c1ccccc1F)CC2 (single isomer, unassigned; diastereomer 4)	microsomal CLint [4]: 39 µL/min/mg; microsomal CLint [5]: 28 µL/min/mg
69	Cc1ccccc1C1(O)CCCCC1N1CCC2(CC1)C(=O)NCC2c1ccc(F)cc1 (single isomer, unassigned; diastereomer 4)	–
646	O=C1NCC(c2ccc(F)cc2)C12CCN(C1CCCCC1(O)c1cccc(F)c1)CC2 (single isomer, unassigned; diastereomer 4)	–
158	COc1ccc(C2(O)CCCCC2N2CCC3(CC2)C(=O)NCC3c2ccc(F)cc2)cc1 (stereo in doubt)	–
1770	O=C1NCC(c2ccc(F)cc2)C12CCN(C1CCCCC1(O)c1ccccc1F)CC2 (stereo in doubt)	–
158	COc1cccc(C2(O)CCCCC2N2CCC3(CC2)C(=O)NCC3c2ccc(F)cc2)c1 (stereo in doubt)	–
110	Cc1ccccc1C1(O)CCCCC1N1CCC2(CC1)C(=O)NCC2c1ccc(F)cc1 (stereo in doubt)	–
118	O=C1NCC(c2ccc(F)cc2)C12CCN(C1CCCCC1(O)c1cccc(Cl)c1)CC2 (stereo in doubt; form 1)	–
73	O=C1NCC(c2ccc(F)cc2)C12CCN(C1CCCCC1(O)c1cccc(Cl)c1)CC2 (stereo in doubt; form 2)	–
